Data taken from article PMC4750079, “Tackling amyloidogenesis in Alzheimer’s disease with A2V variants of Amyloid-β” (Scientific Reports, 2016).
Where a SMILES comes first, the peptide text is derived from it. [ ]: non-standard residue; d: D form.

How the values were obtained:
Aβ1-42WT = biological target: T1, Aβ1-42WT (Homo sapiens, UniProt P05067); assay: Atomic force microscopy of Aβ1-42WT oligomerization; assay type: biochemical; conditions: Aβ1-42WT 100 μM co-incubated with peptide 1:4, pH 7.4, 4 °C, 24 h, AFM
T1 construct: Aβ1-42WT oligomers were formed following incubation of Aβ1-42WT at a final concentration of 100 μM; made in house; host or cells: chemical synthesis (solid-phase Fmoc), no expression host
T1 sequence (P05067 672-713 limits assumed): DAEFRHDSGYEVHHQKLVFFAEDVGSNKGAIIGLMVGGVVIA
Experimental: In polarized-light and EM studies, both peptides were used at 0.125 mM, molar ratio = 1:1 or 1:4 respectively, with 20 days incubation. […] E,F: Representative Tapping mode of AFM images as determined by amplitude error data of Aβ1-42WT oligomers. Aβ1-42WT peptide 100 μM in phosphate buffer 50 mM, pH 7.4 was incubated at 4 °C for 24 h alone (E) (Z range: -10/ + 10 mV) or in presence of Aβ1-6A2VTAT(D) (F) (Z range: -10/ + 25 mV). The molar ratio of Aβ1-42WT to Aβ1-6A2VTAT(D) was 1:4. Scale bar: 1 μm, inset: 200 nm. (G,H): height plot profiles obtained along different lines traced on the topographic AFM images.
Aβ1-42WT oligomers were formed following incubation of Aβ1-42WT at a final concentration of 100 μM in phosphate buffer 50 mM, pH 7.4 at 4 °C for 24 h, alone or in presence of Aβ1-6A2VTAT(D), at 1:4 molar ratio. Sample solutions were diluted to a final concentration of 10 μM of Aβ1-42WT with phosphate buffer and 50 μl of each solution was immediately added onto freshly cleaved mica at room temperature for 2 minutes. Samples were washed and dried under gentle nitrogen flow. AFM analyses were carried out on a Multimode AFM with a Nanoscope V system (Veeco/Digital Instruments). AFM images were analysed using the Scanning Probe Image Processor data analysis package. All the topographic patterns and SPIP characterization were verified via additional measurements on a minimum of five different, well separated areas.

proteinase K = proteinase K (Parengyodontium album, UniProt P06873); conditions: peptide 1 µg/µl, 10 ng/µl proteinase K, 24 h, 25 °C and 37 °C, MALDI TOF MS; small fraction cleaved at Gly 11
Sequence of proteinase K (P06873 106-384, species assumed): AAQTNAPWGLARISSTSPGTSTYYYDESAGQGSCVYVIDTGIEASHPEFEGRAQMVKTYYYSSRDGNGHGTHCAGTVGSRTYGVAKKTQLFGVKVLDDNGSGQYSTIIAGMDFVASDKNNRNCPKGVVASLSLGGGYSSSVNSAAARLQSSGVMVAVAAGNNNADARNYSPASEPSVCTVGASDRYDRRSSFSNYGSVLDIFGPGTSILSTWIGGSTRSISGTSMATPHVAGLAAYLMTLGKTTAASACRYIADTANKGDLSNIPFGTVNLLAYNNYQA
Experimental: (§1) The stability of Aβ1-6A2VTAT(D) peptide to protease digestion was also investigated. To this end, the peptide (1µg/µl) was incubated at 37 °C with 10 ng/µl of proteinase K and in the presence of OP50 E. coli. […] Samples were potted on a metallic plate (MTP 384 Ground Steel, Bruker) before and 24 h after incubation at 25 °C and 37 °C, and analyzed by MALDI TOF mass spectrometry (MS).

OP50 E. coli = conditions: peptide 1 µg/µl, 24 h, 25 °C and 37 °C, MALDI TOF MS, small fraction cleaved at Gly 11
Experimental: as §1

[1] = system: Aβ1-42WT toxicity in SH-SY5Y cells; assay: Inhibition of the toxicity induced by Aβ1-42WT in SH-SY5Y cell cultures (MTT test); assay type: cell-based, human; conditions: differentiated SH-SY5Y, co-incubated with Aβ1-42WT, 24 h
Experimental: Figure 2 Analysis of the effects of Aβ1-6WT(D), Aβ1-6A2V(D) and Aβ1-6A2VTAT(D) on neurotoxicity in cell models. SH-SY5Y cells were differentiated with 10 μM retinoic acid. After 6 days the proper peptide was added to culture medium and cell viability was assessed after 24 h by MTT test. […] Conversely, Aβ1-42WT reduces cell viability by 35%. * Significance vs non-treated cells. (C,D) Both Aβ1-6WT(D) and Aβ1-6A2V(D) are able to counteract the toxic effect of Aβ1-42WT. […] Comparison of cell viability was performed by Student t-test.
(§2) Toxicity studies with Aβ1-6WT(D), Aβ1-6A2V(D) or Aβ1-6A2VTAT(D) and the short peptides’ ability to inhibit the toxicity induced by Aβ1-42WT in SH-SY5Y cell cultures were analyzed following previously described protocols. Each experiment was performed in triplicate; the data provided were obtained as the mean of three independent assays.

huAPPSwe/moAPP0/0 mice = assay: Pilot preclinical study in huAPPSwe/moAPP0/0 mice; assay type: in vivo, mouse
Experimental: Transgenic APP23 mice expressing the Swedish double mutation in the human APP gene[46] and knock-out for endogenous APP (huAPP^Swe/moAPP^0/0) were generated in our lab by crossing APP23 mice with APP^0/0 animals. Mice (n = 6) were treated intraperitoneally (i.p.) every day for 21 days with Aβ1-6A2VTAT(D) (10 mg/kg) or saline solution and culled 24 h after the last treatment.
The left hemisphere of each brain was homogenized in 7 volumes of 10 mM Tris-HCl, pH 7.4, added with cOmplete Mini Protease Inhibitors cocktail (Roche), sonicated for 1 min using an ultrasonic homogenizer (SONOPULS) and centrifuged at 100,000 xg for 1 h at 4 °C. The supernatant was saved as the soluble fraction; the pellet was extracted in 70% formic acid and neutralized with 20 volumes of 1 M Tris (insoluble fraction).
Aβ40, Aβ42 and aggregated Aβ were measured in both soluble and insoluble fractions by ELISA (Invitrogen). Each experiment was performed in triplicate. The analysis of APP processing followed the protocol described above. After centrifugation, the supernatant was collected as the SDS-soluble fraction, which was analyzed by western blot with the A8717 antibody (Sigma). Signal intensity of the bands was measured by Quantity One (BioRad).
Coronal slices of the right hemibrain were embedded in paraffin and cut (7μm); sections were de-waxed in xylene and hydrated through serial alcohols to water. After formic acid (80%) pre-treatment, sections were incubated overnight with anti-Aβ antibody (4G8, 1:4000; Covance). The primary antibody signal was detected with a biotinylated secondary antibody followed by horseradish streptavidin peroxidase and visualized with DAB. Amyloid deposition was quantified in mouse brain using Aβ immunostaining (4G8) and the staining intensity was evaluated semiquantitatively using a scale range from 0 to 5 by light microscopy. The assessment was conducted in two adjacent sections of the same brain area[49]. A parallel quantification of the Aβ plaque load was performed using image analysis software (NIS-elements-Nikon)[50][51][52].

SH-SY5Y cells = assay: Toxicity of peptides on differentiated SH-SY5Y cells (MTT test); assay type: cell-based, human; conditions: 24 h
Experimental: Figure 2 Analysis of the effects of Aβ1-6WT(D), Aβ1-6A2V(D) and Aβ1-6A2VTAT(D) on neurotoxicity in cell models. SH-SY5Y cells were differentiated with 10 μM retinoic acid. […] Comparison of cell viability was performed by Student t-test.
as §2

[2] = i.p. daily for 21 days, vs saline, ELISA

CC(C)[C@@H](NC(=O)[C@H](N)CC(=O)O)C(=O)N[C@H](CCC(=O)O)C(=O)N[C@H](Cc1ccccc1)C(=O)N[C@H](CCCNC(=N)N)C(=O)N[C@H](Cc1c[nH]cn1)C(=O)NCC(=O)NCC(=O)NCC(=O)NCC(=O)NCC(=O)N[C@H](CCCNC(=N)N)C(=O)N[C@H](CCCCN)C(=O)N[C@H](CCCCN)C(=O)N[C@H](CCCNC(=N)N)C(=O)N[C@H](CCCNC(=N)N)C(=O)N[C@H](CCC(N)=O)C(=O)N[C@H](CCCNC(=N)N)C(=O)N[C@H](CCCNC(=N)N)C(=O)N[C@H](CCCNC(=N)N)C(=O)O [Aβ1-6A2VTAT(D)] (H-[dD][dV][dE][dF][dR][dH]GGGGG[dR][dK][dK][dR][dR][dQ][dR][dR][dR]-OH; N-terminus assumed)
diameter of very small globular structures (~70%) (Aβ1-42WT): 5-8 nm
oligomeric structures of Aβ1-42WT detected (Aβ1-42WT): only rare oligomeric structures were detected
resistance to digestion with proteinase K (proteinase K): largely resistant
resistance to digestion with bacteria proteases (OP50 E. coli): largely resistant
effect on toxicity induced by Aβ1-42WT [1]: significant dose-dependent reduction of the toxicity
intracerebral amyloid deposits (huAPPSwe/moAPP0/0 mice; 13-month-old mice, i.p. once a day for 3 weeks, 4G8 immunohistochemistry, plaque count): decrease of intracerebral amyloid deposits
effects on APP processing (C99:C83 ratio), short-term (huAPPSwe/moAPP0/0 mice; after 3 weeks of treatment, western blot): not observed after short-term treatment schedules
Aβ42 in the soluble fraction and Aβ40, Aβ42 and aggregated Aβ in the insoluble fraction (huAPPSwe/moAPP0/0 mice; [2]): not significantly lower
brain Aβ40 levels in the soluble fraction (huAPPSwe/moAPP0/0 mice; [2]): reduction of Aβ40 levels in the soluble fraction
brain aggregated Aβ (soluble fraction) (huAPPSwe/moAPP0/0 mice; [2]): decrease in aggregated Aβ
toxicity at concentrations between 1 and 5 μM (SH-SY5Y cells; 1 to 5 μM): not toxic
toxicity at concentrations higher than 5 μM (SH-SY5Y cells; higher concentrations): reduces cell viability at higher concentrations
